Reference: patent publication US20040052750A1, “Compositions for prevention and alleviation of skin wrinkles” (priority 2000, published 2004)
Structures can show the parent of a compound that is named as a salt.

How the values were obtained:
[1] = system: hairless mice; test: Alleviating photo-induced wrinkles in hairless mice; format: in vivo; conditions: twice a day for 6 weeks, 10 per group
Description: Mice were placed into 21 experimental groups and 3 control groups, with 10 rats per group. […] The experimental protocol is as follows. Hairless mice were radiated using a simulated sunlight at a dose of 2 MED (double Minimal Erythema Dose) 3 days a week for 10 weeks, thereby generating wrinkles. Then, respective active ingredients or the solvent only were applied at a volume of 100 μl each, twice a day for 6 weeks. Degrees of wrinkle reduction were determined. The determination was performed by visually observing the compound-applied region with naked eyes, and the region was photographed. The degrees of alleviation of wrinkles in the compound-treatment groups (experimental groups) were compared with those of the control group and were determined as one of 4 stages, that is, none (Score 0), slight (Score 1), moderate (Score 2) and high (Score 3), and the corresponding mice were counted.

[2] = system: fibroblasts derived from a human; test: Promoting collagen production in fibroblasts (3H-proline incorporation into collagenase-sensitive protein); format: cell-based; conditions: control = 100%
Description: The experimental protocol in detail is as follows.
Human-derived fibroblasts were transferred to a 24 well plate and cultured in a medium containing 10% fetal bovine serum (FBS) for 24 hours, followed by washing twice with phosphate buffered saline. […] After the incubation was terminated, cells from each group were harvested and two fractions of each culture were prepared. One fraction from each culture was treated with collagenase. To all fractions was added trichloroacetic acid to precipitate proteins. The amount of radioactivity incorporated into collagenase-sensitive protein was measured and compared with that of the other fraction which was not treated with collagenase. The difference in radioactivity was attributed to the promoting effect of the compound.

[3] = system: hairless mice; test: Inhibiting the generation of wrinkles in hairless mice (simulated sunlight); format: in vivo; conditions: 10 per group
Description: 6-week hairless mice were placed into 21 experimental groups and 3 control groups, with 10 rats per group. […] The experimental protocol in detail is as follows. Hairless mice were radiated using simulated sunlight at a dose of 2 MED (double Minimal Erythema Dose) 3 days a week for […], thereby generating wrinkles. Respective active ingredients or the solvent only were applied twice every day (specifically, on radiation days, the application was performed at 30 min before and after the radiation), at a volume of 100 μl each for 10 weeks from the first radiation day. Degrees of inhibition of generated wrinkles were determined. The determination was performed by visual observation with naked eyes and photography.

[4] = system: rat skin; test: Promotion of collagen production in rat skin (hydroxyproline in implanted PVA sponge); format: in vivo, SD rats; conditions: 200 μl every day for 10 days, control = 100%
Description: In brief, 5-week male SD rats were grouped with 5 rats per group. The rats were each incised 1 cm in the center of their abdomens and PVA sponges (Unipoint ind.) were inserted therein. After suturing, as for experimental groups, respective active ingredients to be examined were applied to the PVA sponge-embeded regions i n a volume o f 200 μl every day for 10 days. Upon autopsy, the PVA sponge was removed to quantify hydroxyproline. The PVA sponge was added with 4 ml of 6 N HCl, hydrolized at 130° C. for 3 hours and was subjected to complete drying. 50 μl of methanol was added and the solution was incubated at 110° C. until HCl was removed. 1.2 ml of 50% isopropanol was added to dissolve the remaining precipitate. 200 μl of chloramine-T (sodium p-toluensulfochloramide trihydrate) solution was added while stirring, and let stand for 10 min. After adding 1.2 ml of Ehrlich reagent and mixing, the solution was incubated at 50° C. for 90 min. The resulting solution was cooled to room temperature and absorbance at 558 nm was measured. Hydroxyproline standard solutions were prepared by dissolving 1 mg hydroxyproline in 1 ml HCl and diluting it to concentrations of 0, 0.2, 0.4, 0.8, 1 mg each relative to 25 μl of 6 N HCl. The standard solutions were hydrolyzed at 130° C. for 3 hours. The quantified value of hydroxyproline, relative to hydroxyproline value (100%) of the control group which was applied with solvent only, are shown in Table 2.

Structure (SMILES): CCCC(CCC)C(=O)O [Valproic acid]
- Reduction of wrinkles, Score 0 (none) ([1]; 10^-3 M): 0 number of mice
- Reduction of wrinkles, Score 1 (slight) ([1]; 10^-3 M): 0 number of mice
- Reduction of wrinkles, Score 2 (moderate) ([1]; 10^-3 M): 2 number of mice
- Reduction of wrinkles, Score 3 (high) ([1]; 10^-3 M): 8 number of mice
- Reduction of wrinkles, Score 0 (none) ([1]; 10^-5 M): 0 number of mice
- Reduction of wrinkles, Score 1 (slight) ([1]; 10^-5 M): 1 number of mice
- Reduction of wrinkles, Score 2 (moderate) ([1]; 10^-5 M): 2 number of mice
- Reduction of wrinkles, Score 3 (high) ([1]; 10^-5 M): 7 number of mice
- Reduction of wrinkles, Score 0 (none) ([1]; 10^-8 M): 0 number of mice
- Reduction of wrinkles, Score 1 (slight) ([1]; 10^-8 M): 1 number of mice
- Reduction of wrinkles, Score 2 (moderate) ([1]; 10^-8 M): 2 number of mice
- Reduction of wrinkles, Score 3 (high) ([1]; 10^-8 M): 7 number of mice
- Effect of promoting collagen production in fibroblasts (rate of collagen production) ([2]; 10^-5 M): 370.21%
- Effect of promoting collagen production in fibroblasts (rate of collagen production) ([2]; 10^-6 M): 332.11%
- Effect of promoting collagen production in fibroblasts (rate of collagen production) ([2]; 10^-7 M): 283.24%
- Effect of promoting collagen production in fibroblasts (rate of collagen production) ([2]; 10^-8 M): 201.13%
- Inhibition of wrinkles, Score 0 (none) ([3]; 10^-3 M): 0 number of mice
- Inhibition of wrinkles, Score 1 (slight) ([3]; 10^-3 M): 0 number of mice
- Inhibition of wrinkles, Score 2 (moderate) ([3]; 10^-3 M): 2 number of mice
- Inhibition of wrinkles, Score 3 (high) ([3]; 10^-3 M): 8 number of mice
- Inhibition of wrinkles, Score 0 (none) ([3]; 10^-5 M): 0 number of mice
- Inhibition of wrinkles, Score 1 (slight) ([3]; 10^-5 M): 1 number of mice
- Inhibition of wrinkles, Score 2 (moderate) ([3]; 10^-5 M): 2 number of mice
- Inhibition of wrinkles, Score 3 (high) ([3]; 10^-5 M): 7 number of mice
- Inhibition of wrinkles, Score 0 (none) ([3]; 10^-8 M): 0 number of mice
- Inhibition of wrinkles, Score 1 (slight) ([3]; 10^-8 M): 1 number of mice
- Inhibition of wrinkles, Score 2 (moderate) ([3]; 10^-8 M): 1 number of mice
- Inhibition of wrinkles, Score 3 (high) ([3]; 10^-8 M): 8 number of mice
- Effect of promoting collagen production in animal skin (hydroxyproline value vs control) ([4]; 10^-5 M): 178.13%
- Effect of promoting collagen production in animal skin (hydroxyproline value vs control) ([4]; 10^-6 M): 157.72%
- Effect of promoting collagen production in animal skin (hydroxyproline value vs control) ([4]; 10^-7 M): 139.24%
- Effect of promoting collagen production in animal skin (hydroxyproline value vs control) ([4]; 10^-8 M): 128.05%

Structure (SMILES): COc1ccc(CCN(C)CCCC(C#N)(c2ccc(OC)c(OC)c2)C(C)C)cc1OC (stereo not shown) [Verapamil HCl]
- Reduction of wrinkles, Score 0 (none) ([1]; 10^-3 M): 0 number of mice
- Reduction of wrinkles, Score 1 (slight) ([1]; 10^-3 M): 1 number of mice
- Reduction of wrinkles, Score 2 (moderate) ([1]; 10^-3 M): 2 number of mice
- Reduction of wrinkles, Score 3 (high) ([1]; 10^-3 M): 7 number of mice
- Reduction of wrinkles, Score 0 (none) ([1]; 10^-5 M): 0 number of mice
- Reduction of wrinkles, Score 1 (slight) ([1]; 10^-5 M): 2 number of mice
- Reduction of wrinkles, Score 2 (moderate) ([1]; 10^-5 M): 1 number of mice
- Reduction of wrinkles, Score 3 (high) ([1]; 10^-5 M): 7 number of mice
- Reduction of wrinkles, Score 0 (none) ([1]; 10^-8 M): 0 number of mice
- Reduction of wrinkles, Score 1 (slight) ([1]; 10^-8 M): 2 number of mice
- Reduction of wrinkles, Score 2 (moderate) ([1]; 10^-8 M): 2 number of mice
- Reduction of wrinkles, Score 3 (high) ([1]; 10^-8 M): 6 number of mice
- Effect of promoting collagen production in fibroblasts (rate of collagen production) ([2]; 10^-5 M): 355.12%
- Effect of promoting collagen production in fibroblasts (rate of collagen production) ([2]; 10^-6 M): 331.09%
- Effect of promoting collagen production in fibroblasts (rate of collagen production) ([2]; 10^-7 M): 280.23%
- Effect of promoting collagen production in fibroblasts (rate of collagen production) ([2]; 10^-8 M): 183.25%
- Inhibition of wrinkles, Score 0 (none) ([3]; 10^-3 M): 0 number of mice
- Inhibition of wrinkles, Score 1 (slight) ([3]; 10^-3 M): 0 number of mice
- Inhibition of wrinkles, Score 2 (moderate) ([3]; 10^-3 M): 1 number of mice
- Inhibition of wrinkles, Score 3 (high) ([3]; 10^-3 M): 9 number of mice
- Inhibition of wrinkles, Score 0 (none) ([3]; 10^-5 M): 0 number of mice
- Inhibition of wrinkles, Score 1 (slight) ([3]; 10^-5 M): 1 number of mice
- Inhibition of wrinkles, Score 2 (moderate) ([3]; 10^-5 M): 2 number of mice
- Inhibition of wrinkles, Score 3 (high) ([3]; 10^-5 M): 7 number of mice
- Inhibition of wrinkles, Score 0 (none) ([3]; 10^-8 M): 0 number of mice
- Inhibition of wrinkles, Score 1 (slight) ([3]; 10^-8 M): 1 number of mice
- Inhibition of wrinkles, Score 2 (moderate) ([3]; 10^-8 M): 1 number of mice
- Inhibition of wrinkles, Score 3 (high) ([3]; 10^-8 M): 8 number of mice
- Effect of promoting collagen production in animal skin (hydroxyproline value vs control) ([4]; 10^-5 M): 183.32%
- Effect of promoting collagen production in animal skin (hydroxyproline value vs control) ([4]; 10^-6 M): 167.06%
- Effect of promoting collagen production in animal skin (hydroxyproline value vs control) ([4]; 10^-7 M): 147.39%
- Effect of promoting collagen production in animal skin (hydroxyproline value vs control) ([4]; 10^-8 M): 135.63%
